Where “and” joins values, the source holds several entries; their conditions need not be identical. Identical values can stand only once.
Assays:
S1P receptor 4 = target: T1, S1P receptor 4 (Homo sapiens, UniProt O95977); assay: S1P receptor activation in CHO cells, S1P4; format: cell-based; settings: CHO cells over-expressing human S1P4
T1 construct: expressed in transfected cells
T1 sequence (O95977 1-384): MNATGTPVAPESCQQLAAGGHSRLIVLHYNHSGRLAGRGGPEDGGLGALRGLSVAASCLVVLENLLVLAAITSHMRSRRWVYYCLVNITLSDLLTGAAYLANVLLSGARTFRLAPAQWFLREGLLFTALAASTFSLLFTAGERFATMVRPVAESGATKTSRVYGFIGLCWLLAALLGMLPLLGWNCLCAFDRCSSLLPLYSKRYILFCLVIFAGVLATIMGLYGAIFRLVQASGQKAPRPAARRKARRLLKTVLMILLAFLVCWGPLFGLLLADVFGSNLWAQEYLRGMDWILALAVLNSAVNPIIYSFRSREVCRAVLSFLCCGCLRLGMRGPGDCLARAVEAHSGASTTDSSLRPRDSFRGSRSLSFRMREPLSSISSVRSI
Text: Phosphorylation may have effects on S1P receptor activity that could cause bradycardia. Bradycardia, the dose-limiting toxicity that prevents the use of FTY720 in cancer patients, stems from FTY720-P's actions on S1P receptors 1 and 3. (Camm, J., et al. (2014) Am. Heart J. 168, 632-644; Cohen, J. A., Chun, J. (2011) Ann. Neurol. 69, 759-777; Sanna, M. G., et al. (2004) J. Biol. Chem. 279, 13839-13848; the disclosures of which are incorporated herein by reference). Phosphorylation by sphingosine kinase may make compounds competent to activate S1P receptors. FTY720, for example, when phosphorylated is known to activate S1P receptors 1 and 3. Because compound 5 could be phosphorylated, the activity of compound 5 and its phosphate 5-P (FIG. 28) on S1P receptors was evaluated (FIG. 32).
51P1-5 activation: Chinese hamster ovary (CHO) cells stably over-expressing the different human 51P receptor subtypes are used. S1P1, S1P4 and S1P5 overexpressing CHO cells are cultured in medium containing alpha-MEM supplemented with 10% FBS, 50 μg/ml gentamycin and 0.5 mg/ml G418. S1P2 and S1P3 overexpressing CHO cells are cultured in RPMI containing 10% FBS, 50 μg/ml gentamycin and 0.5 mg/ml G418. Prior to stimulation, cells are rendered serum-free for 24 h. Stimulation is carried out for 10 min in serum-free DMEM containing 0.1 mg/ml of fatty-acid free BSA in the absence or presence of the various compounds or 51P. Protein lysates are prepared using a buffer containing (50 mM Tris pH 7.4, 150 mM NaCl, 10% glycerol, 1% Triton X-100, 2 mM EDTA, 2 mM EGTA, 40 mM β-glycerophosphate, 50 mM sodium fluoride, 10 mM sodium pyrophosphate, 2 mM dithiothreitol, 0.2 mM sodium orthovanadate). Cells are homogenized by one 5 sec burst in a MSE Ultrasonic Disintegrator, centrifuged and taken for protein determination. Equal amounts of protein are separated by SDS-PAGE (10% polyacrylamide gel), transferred to nitrocellulose membranes and subjected to Western blot analysis. Bands were stained using IRDye® secondary antibodies and visualized by the LICOR Odyssey® Fc Imaging system. Antibodies against phospho-Thr202/Tyr204-p42/p44-MAPK and phospho-Ser PKC substrate are from Cell Signaling, Frankfurt am Main, Germany. Polyclonal antisera against total p42 and total p44 were generated and characterized as previously described. (Huwiler, A.; Pfeilschifter, J. Br. J. Pharmacol. 1994, 113, 1455-1463; disclosure of which is incorporated herein by reference).

CD98 (4F2hc, SLC3A2) = assay: Surface CD98 nutrient transporter down-regulation by flow cytometry; format: cell-based, murine; settings: FL5.12 cells, surface CD98 at 3 h, flow cytometry, mean ± SEM, n ≥3
Text: In an exemplified study, nutrient transporter down-regulation was monitored by quantifying surface levels of the amino acid transporter-associated protein, CD98, by flow cytometry. Vacuolation was scored in a range from 0 to […], as determined by a vacuolation assay described in greater detail in the Materials and Methods section below.
Cell culture studies: FL5.12 cells (murine hematopoetic cells originally obtained from Craig Thompson, Memorial Sloan Kettering Cancer Center) were maintained at 0.1-0.5 million/ml in RPMI 1640 (Mediatech) supplemented with 10% fetal calf serum (FCS, Sigma-Aldrich), 10 mM Hepes (Mediatech), 500 pg/ml recombinant IL-3 (cat #575502, Biolegend), 55 μM β-mercaptoethanol (Sigma-Aldrich), 2 mM L-glutamine (Mediatech), and antibiotics. Cells were screened for Mycoplasma every 3 months using the Look-Out Mycoplasma PCR Detection kit (cat #MP0035, Sigma).
Nutrient transporter expression: Surface CD98 (4F2hc, SLC3A2) expression was measured at 3 h using phycoerythrin (PE)-conjugated rat anti-mouse CD98 antibody (Biolegend, cat #128208); analysis was restricted to viable cells. PE conjugated Rat IgG2a, k (cat #400508, Biolegend) was used as an isotype control. For staining, 200,000 cells were pelleted, re-suspended in 100 μl FACS block (PBS with 10% FCS and 0.05% NaN3) containing 0.25 μL anti-CD98 antibody, incubated on ice for 30 min, washed twice with 1 ml FACS wash (PBS containing 2% FCS and 0.05% NaN3), and analyzed on a BD LSR II flow cytometer. Data was processed with FlowJo software (Treestar).

CCCCCCCCc1ccc([C@H]2CCN[C@@H]2CO)cc1.Cl [Compound 5, (2S,3R)-2-(hydroxymethyl)-3-(4-octylphenyl)Pyrrolidinium chloride]
activation of S1P receptor 4 (S1P receptor 4): failed to activate
% CD98 down-regulation (CD98 (4F2hc, SLC3A2); listed as 104): 54% and 54 ± 1%

CCCCCCCCc1ccc(CCC(N)(CO)CO)cc1.Cl [FTY720, 2-Amino-2-[2-(4-octylphenyl)ethyl]propane 1,3-diol hydrochloride, reference compound]
% CD98 down-regulation (CD98 (4F2hc, SLC3A2)): 68 ± 3%

CCCCCCCCc1ccc([C@@H]2CCN[C@H]2CO)cc1.Cl [Compound 6]
activation of S1P receptor 4 (S1P receptor 4): failed to activate
